Results from patent publication US8574645B2, “Antimicrobial composition” (DSM IP Assets B.V., priority 2004, dated 2013).
Like-named read-outs stand apart in the source and are kept apart here.

Experiments:
most food born fungi = conditions: cited from earlier work
[1] = type: physicochemical
Protocol: Cottage cheese was prepared following the standard procedure for cottage cheese making. The dry curd was obtained by addition of a starter culture to pasteurized skim milk. After acidification till pH 4.4 the curd was pasteurized and rinsed with water. The dry curd was mixed with the dressing at the ratio 66% curd and […]. Before mixing the curd and the dressing, the preservatives Delvocid® and Delvoplus® were added to the dressing. The preservative concentrations in the end products were 2.5 and 5 ppm of natamycin (5 and 10 ppm of Delvocid®) and 1.25 and 2.5 ppm of nisin (50 and 100 ppm of Delvoplus®). The moisture content of cottage cheese (dry curd mixed with the dressing) was 82%.
The procedure described in the International IDF (International Dairy Federation) Standard 140A:1992 for cheese was used to determine the concentration of natamycin in the cottage cheese samples. In total 12 different samples were analysed in triplicate. The remaining percentage of natamycin was calculated using the average of the triplicate. […] After 6 weeks of storage at refrigerated temperature, the average stability of natamycin in cottage cheese was of 92%.

Listeria innocua LM35 = assay: Antibacterial activity in inoculated cottage cheese, viable cell enumeration; type: cell-based; conditions: for Log CFU/g of L. innocua: nisin 0.00 ppm, cottage cheese, 4-7° C.
Protocol: This example describes the antibacterial activity of nisin (1.25 and 2.5 ppm) in cottage cheese, in presence of low natamycin concentration. Cottage cheese was prepared as described above. After adding the dressing to the dry curd, the cottage cheese was inoculated with yeasts, fungal cells and cells of Listeria innocua LM35. Following the artificial contamination, the cottage cheese was added with two nisin concentrations 1.25 and 2.5 ppm and/or in combination with natamycin at the concentration 2.5 or 5 ppm. The antibacterial activity of nisin against L. innocua was evaluated after 3 and 6 weeks of incubation at 4° C. through the enumeration of the viable cells in the inoculated samples, in presence or not of preservatives. The number of viable bacterial cells was also determined in a negative sample, non inoculated cottage cheese without preservatives and in a positive control, sample artificially contaminated with bacteria.

[2] = tested on: Kluyveromyces marxianus CBS 1557; assay: Antifungal activity in inoculated cottage cheese, viable cell enumeration; type: cell-based; conditions: for Log CFU/g of K. marxianus: nisin 0.00 ppm, cottage cheese, 4-7° C.
Protocol: (§1) This example describes the antifungal activity of low natamycin concentration (2.5 and 5 ppm) in cottage cheese, in presence of nisin. Cottage cheese was prepared as described above. After adding the dressing to the dry curd, the cottage cheese was inoculated with yeasts and fungal cells, Kluyveromyces marxianus CBS 1557 and Penicillium roqueforti CBS 304.97, respectively. Following the artificial contamination, natamycin and/or nisin was added to the cottage cheese at two different concentrations, 2.5 and 5 ppm for natamycin and 1.25 and 2.50 ppm for nisin. The antifungal activity of natamycin against the yeast and the mould cells was evaluated after 3 and 6 weeks of incubation at 4° C. through the enumeration of the viable cells in the inoculated samples, in presence or not of preservatives. The number of viable yeast of fungal cells was also determined in a negative sample, non inoculated cottage cheese without preservatives and in a positive control, sample artificially contaminated with yeast and fungal cells without preservative.

[3] = tested on: Penicillium roqueforti CBS 304.97; assay: as above; type: cell-based; conditions: for Log spores/g of P. roqueforti: nisin 0.00 ppm, cottage cheese, 4-7° C.
Protocol: as §1

yeast and mould = assay: Outgrowth of yeast and mould in or on food products; type: cell-based
Gram positive bacteria = assay: Outgrowth of Gram positive bacteria at the surface of food products; type: cell-based; conditions: applied at the surface of product, 0.0001 and 1 ppm nisin
[4] = natamycin at 2.5 or 5 ppm in cottage cheese, up to 6 weeks

For `C[C@@H]1C/C=C/C=C/C=C/C=C/[C@H](O[C@@H]2O[C@H](C)[C@@H](O)[C@H](N)[C@@H]2O)C[C@@H]2O[C@](O)(C[C@@H](O)C[C@H]3O[C@@H]3/C=C/C(=O)O1)C[C@H](O)[C@H]2C(=O)O` [natamycin], the “MIC (Minimal Inhibition Concentration)” value (most food born fungi) is listed as “less than 10 ppm”, the “Stability of dissolved natamycin in water-containing product” value [1] is listed as “stable” and the “Stability of natamycin in cottage cheese” value [1] is listed as “stable”. The “Remaining percentage of natamycin” value ([1]; 0 h) was 100%, the “Remaining percentage of natamycin, Average” value ([1]; 0 h) was 100% and the “Remaining percentage of natamycin, Average” value ([1]; 504 h) was 98%. For the same molecule, the “Remaining percentage of natamycin, Average” value ([1]; 1008 h) was 92%, the “Log CFU/g of L. innocua” value (Listeria innocua LM35; natamycin 2.50 ppm, 0 week) was 1.90 Log CFU/g and the “Log CFU/g of L. innocua” value (Listeria innocua LM35; natamycin 2.50 ppm, 3 weeks) was 2.50 Log CFU/g. The “Log CFU/g of L. innocua” value (Listeria innocua LM35; natamycin 2.50 ppm, 6 weeks) was 4.50 Log CFU/g, the “Log CFU/g of L. innocua” value (Listeria innocua LM35; natamycin 5.00 ppm, 0 week) was 1.90 Log CFU/g and the “Log CFU/g of L. innocua” value (Listeria innocua LM35; natamycin 5.00 ppm, 3 weeks) was 1.90 Log CFU/g. The “Log CFU/g of L. innocua” value (Listeria innocua LM35; natamycin 5.00 ppm, 6 weeks) was 4.70 Log CFU/g, the “Log CFU/g of K. marxianus” value ([2]; natamycin 2.50 ppm, 0 week) was 1.70 Log CFU/g and the “Log CFU/g of K. marxianus” value ([2]; natamycin 2.50 ppm, 3 weeks) was 1.70 Log CFU/g. For the same molecule, the “Log CFU/g of K. marxianus” value ([2]; natamycin 2.50 ppm, 6 weeks) was less than 1.00 Log CFU/g, the “Log CFU/g of K. marxianus” value ([2]; natamycin 5.00 ppm, 0 week) was 1.30 Log CFU/g and the “Log CFU/g of K. marxianus” value ([2]; natamycin 5.00 ppm, 3 weeks) was less than 1.00 Log CFU/g. The “Log CFU/g of K. marxianus” value ([2]; natamycin 5.00 ppm, 6 weeks) was less than 1.00 Log CFU/g, the “Prevention of growth of K. marxianus” value [2, 4] was “effective in preventing the growth” and the “Log spores/g of P. roqueforti” value ([3]; natamycin 2.50 ppm, 0 week) was 1.70 Log spores/g. For the same molecule, the “Log spores/g of P. roqueforti” value ([3]; natamycin 2.50 ppm, 3 weeks) was 1.70 Log spores/g, the “Log spores/g of P. roqueforti” value ([3]; natamycin 2.50 ppm, 6 weeks) was less than 1.00 Log spores/g and the “Log spores/g of P. roqueforti” value ([3]; natamycin 5.00 ppm, 0 week) was 1.60 Log spores/g. The “Log spores/g of P. roqueforti” value ([3]; natamycin 5.00 ppm, 3 weeks) was less than 1.00 Log spores/g, the “Log spores/g of P. roqueforti” value ([3]; natamycin 5.00 ppm, 6 weeks) was less than 1.00 Log spores/g and the “Prevention of growth of P. roqueforti” value [3, 4] was “effective in preventing the growth”. For the same molecule, the “Effectiveness against yeast and mould” value (yeast and mould; applied at the surface of product, 0.01 to 10 ppm natamycin) was “extremely effective” and the “Effectiveness against yeast and mould” value (yeast and mould; introduced into foodstuffs at concentrations whereby almost no crystal or solid form is present, ranging from 120 ppm based on water content) was “extremely effective”.
With nisin the “Effectiveness against Gram positive bacteria” value (Gram positive bacteria) was “extremely effective” and the “Inhibition of growth of L. innocua” value (Listeria innocua LM35; nisin 1.25 and 2.5 ppm in cottage cheese, in presence or not of natamycin) was “inhibited the growth”.
